# Measurements: patent publication US20260166113A1, “COMPOSITIONS AND METHODS FOR TREATING RENAL CANCER” (The Regents of the University of Michigan, priority 2022, published 2026)
# pIC50: −log10 of the molar value. Entries after “also recorded” stand apart in the source; their conditions may differ.
# Key:
# [1] = system: 5 RCC cell lines (786-0, 769-P, A-498, Caki-1, Caki-2); assay: Kinase inhibition, DIA-MS phosphoproteome of treated RCC cell lines; format: cell-based; conditions: treated at calculated IC50 for 1.5 hours; for phosphorylation of signaling-related downstream substrates: DIA-MS
# Procedure: For in vitro experiments assessing the impact of select kinase inhibition on renal cancer cell models (786-0, 769-P, A-498, Caki-1, and Caki-2), the kinase inhibitors, Adaversotib, Everolimus, Sapanisterib, Gefitinib, and Trametinib were dissolved in dimethyl sulfoxide (DMSO) and subjected to sonication in a water bath at room temperature. Following an assessment of individual cell line growth rates to enable calculation of half maximal inhibitory concentration (IC50), cells were seeded in triplicate at concentrations of either 1,000 cells/well (786-0, 769-P, A-498, Caki-2) or 10,000 cells/well (Caki-1). Post-24 hour seeding, cells were subjected to kinase inhibitors at final concentrations of 1 nm, 10 nM, 50 nM, 100 nM, 500 nM, […], with non-treated cells and DMSO treated cells included as controls. Cell growth was measured on day 1 (kinase inhibitor treatment), day 4, and day 6 using the colorimetric CellTiter 96® Aqueous One Cell Proliferation Solution Assay (MTS) following the manufacturer's instructions. IC50 for each cell line in response to single kinase inhibitor exposure was determined by plotting inhibitor concentration against percent activity relative to DMSO-treated controls and calculating the x-intercept of the linear logarithmic trend line. For phosphoproteomic characterization of renal cell models treated with individual kinase inhibitors, six treatment conditions were devised—control, Adaversotib treatment, Everolimus treatment, Sapanisterib treatment, Gefitinib treatment, and Trametinib treatment—and cells were seeded at ˜5E6 cells/15 cm plate and allowed to reach ˜80% confluency. 30 minutes prior to kinase inhibitor treatment, fresh media was exchanged. Cells were then treated with kinase inhibitors at calculated IC50 values for 1.5 hours. Media was removed and cells were three times with a volume of ice-cold PBS. Cells were scraped using 1.5 mL of ice-cold PBS, transferred to Eppendorf tubes, and spun at 3,000×g for 5 minutes at 4° C. A volume of lysis buffer (8 M urea, 75 mM NaCl, 50 mM Tris, pH 8.0, 1 mM EDTA, […] aprotinin, […] leupeptin, 1 mM PMSF, 10 mM NaF, Phosphatase Inhibitor Cocktail 2 and Phosphatase Inhibitor Cocktail 3 [1:100 dilution], and 20 mM PUGNAc) was added and cells lysed. Subsequent sample preparation and ESI-LC-MS/MS analysis for global proteomic and phosphoproteomic characterization for DIA analysis were performed as described for tissue samples.
# Analysis of the DIA data from the kinase inhibitor study (whole proteome and phosphopeptide enriched data) was performed as described above. For each data type, the libraries were built from the corresponding 30 DIA runs (6 treatments x 5 cell lines) supplemented with 8 or 9 fractionated DDA files for whole proteome and phosphopeptide-enriched samples, respectively. The resulting whole proteome spectral library contained 8882 proteins and 173932 precursors; the phosphopeptide enriched sample library contained 7841 proteins and 101491 precursors (including non-phosphorylated proteins and peptides). After DIA-NN quantification, the final quantification table for the phosphopeptide-enriched dataset contained quantification information for 46577 phosphorylated peptides forms, representing 22161 peptide sequences from 5154 proteins. The whole proteome dataset table contained quantification for 7654 genes.
# 786-O renal cancer cells [2] = assay: Cell morphology by IncuCyte ZOOM assay; format: cell-based; conditions: 30 μM, 24 hr, FIG. 18K
# Procedure: (§1) 786-O cells were maintained in Gibco RPMI-1640 supplemented with 10% FBS. CAS 668467-91-2 (UCHL-1 inhibitor) was purchased from Sigma-Aldrich (L4170) and its impact on cell viability was evaluated. Briefly, 2000 cells were seeded on white flat bottom 96 well plates and were treated with increasing concentrations of the inhibitor for a week. CellTiter-Glo Luminescent Cell Viability Assay (Promega) was used to assess cell viability and IC-50 was calculated using a graph pad. Impact of UCHL-1 inhibitor on cell morphology was evaluated using IncuCyte ZOOM assay. For western blot analysis, cell lysates were harvested from control and UCHL-1 treated 786-O cells. Following protein quantification, lysates were resolved in NuPAGE Bis-Tris Protein Gel (ThermoFisher Scientific), transferred on to nitrocellulose membranes, blocked with 5% milk, and incubated overnight with UCHL-1 antibody (HPA005993, Sigma-Aldrich). Following day, membranes were washed with TBST buffer, incubated with HRP-conjugated secondary antibodies, washed, and imaged using Odyssey Fc imager (LiCOR Biosciences).
# 786-O renal cancer cells [3] = assay: CellTiter-Glo Luminescent Cell Viability Assay; format: cell-based; conditions: increasing concentrations for a week, FIG. 18J
# Procedure: as §1
# [4] = system: metastatic papillary RCC cell line ACHN1; assay: Cell viability by CellTiter-Glo assay; format: cell-based; conditions: 120 hrs incubation; for effect on cell viability: FIG. 23D
# Procedure: (§2) The cell viability was determined by CellTiter-Glo assays (Promega). Cells were seeded in 96-well plates (3000 cells per well) in respective culture medium. After 24 hrs incubation, a serial dilution of compounds was added into plates with six replications for each dose. After 120 hrs incubation, the CellTiter-Glo assays were performed based on the manufacturer's instruction to analyze cell proliferation rates. The bioluminescence signal was acquired by the Infinite M1000 Pro plate reader (Tecan). The data were analyzed by GraphPad Prism software (GraphPad Software).
# [5] = system: neuroblastoma cell line NB1 (NB-1); assay: Cell viability by CellTiter-Glo assay; format: cell-based
# Procedure: as §2
# [6] = system: Akt signaling pathway in 786-O cells; assay: Western blot analysis of Akt signaling; format: cell-based; conditions: FIG. 18L
# Procedure: as §1
# ccRCC cell line Caki-1 = assay: In vitro drug treatment and growth inhibition assessment (AlamarBlue cell viability); format: cell-based; conditions: 1, 5, 25 μM, treatment 7 days, FIG. 18J
# Procedure: (§3) The ccRCC cell line Caki-1 and a control cell line HK-2 were maintained in Dulbecco's Modified Eagle Medium/Nutrient Mixture F-12 (DMEM/F-12) culture medium (Gibco-11320033) supplemented with 10% FBS (Sigma, F-9665) and 1% Pen Strep (Gibco, 10,000 U/mL-15140122). All cell lines were seeded at 50,000 cells/well in duplicates in 24-well plates at day 0 and were treated with either UCHL1 inhibitor (CAS 668467-91-2-Calbiochem, Sigma Aldrich-662086-10 MG) or GLUL inhibitor (L-Methionine sulfoximine, Sigma Aldrich-M5379-500 MG) upon reaching 50-60% confluency at day 3 in culture. For both UCH-L1inhibitor or GLUL inhibitor treatment, the working concentrations were used at 1 μM, 5 μM, and 25 μM. Treatment was maintained in culture for a total of 7 days and growth inhibition assessment was performed using AlamarBlueTM Cell Viability Reagent (Invitrogen-DAL1025) at a ratio of 1:10 for 4 hours according to the manufacturer's protocol. Plots and IC50 concentrations were produced in Prism GraphPad (version 9.2.0) by plotting the percent growth inhibition on the y-axis and the Log (concentration) on the x-axis. The corresponding IC50 was extracted from the nonlinear regression curve fitting analysis using Prism GraphPad. Cells treated with only a growth medium without any drugs were used as negative controls.
# [7] = system: normal kidney HK-2 cell line; assay: as above; format: cell-based; conditions: HK-2 normal kidney control; 1, 5, 25 μM; treatment 7 days
# Procedure: as §3
# skrc42.EV = conditions: FIG. 21G
# Procedure: as §3
# metastatic RCC = conditions: everolimus versus sunitinib; literature ref 85; cited from earlier work
smiles,measurement,setting,value
C=CCn1c(=O)c2cnc(Nc3ccc(N4CCN(C)CC4)cc3)nc2n1-c1cccc(C(C)(C)O)n1 [AZD-1775],response among the five kinase inhibitors (phosphorylation of downstream targeted substrates),[1],showed better responses
same,phosphorylation of signaling-related downstream substrates,[1],reduced CDK1 phosphorylation levels in all five cell lines
CC(=O)ON=C1C(=O)N(Cc2cc(Cl)ccc2Cl)c2ccc(Cl)cc21 [CAS 668467-91-2],cell morphology,786-O renal cancer cells [2],altered morphology being elongated and stressed
same,inhibition of cell viability,786-O renal cancer cells [3],dose-dependent inhibition of cell viability
same,pIC50,[4]; FIG. 23D middle,6.19
same,effect on cell viability,[4]; listed as UCHL1 inhibitor,dramatic effects; also recorded: dramatic decrease in cell viability
same,effect on cell viability,"[5]; NB-1, FIG. 23D right",dramatic effects
same,pIC50,[5]; neuroblastoma cell line NB1,5.80
same,activation of the Akt signaling pathway,[6],suppressed activation of the Akt signaling pathway in a dose-dependent manner
same,inhibition of cell viability,ccRCC cell line Caki-1,dose-dependent inhibition of cell viability
same,sensitivity of cell viability to treatment,[7],resistant to the treatment
CS(=N)(=O)CC[C@H](N)C(=O)O (stereo partly drawn) [L-Methionine sulfoximine],response of cell viability to anti-GLUL treatment,skrc42.EV,responded to the anti-GLUL treatment
same,sensitivity of cell viability to treatment,[7],not sensitive to the treatment
CC(C)n1nc(-c2ccc3oc(N)nc3c2)c2c(N)ncnc21 [TAK-228],response among the five kinase inhibitors (phosphorylation of downstream targeted substrates),[1],showed better responses
same,phosphorylation of signaling-related downstream substrates,[1],"reduced phosphorylation of the mTOR complex component, AKT1S1, and its downstream phospho-substrate target, EIF4EBP1"
CO[C@H]1C[C@@H]2CC[C@@H](C)[C@@](O)(O2)C(=O)C(=O)N2CCCC[C@H]2C(=O)O[C@H]([C@H](C)C[C@@H]2CC[C@@H](OCCO)[C@H](OC)C2)CC(=O)[C@H](C)/C=C(\C)[C@@H](O)[C@@H](OC)C(=O)[C@H](C)C[C@H](C)/C=C/C=C/C=C/1C [everolimus],phosphorylation of signaling-related downstream substrates,[1],minimal impact
same,therapeutic value / response in metastatic RCC,metastatic RCC,relatively poor response
COc1cc2ncnc(Nc3ccc(F)c(Cl)c3)c2cc1OCCCN1CCOCC1 [gefitinib],phosphorylation of signaling-related downstream substrates,[1],minimal impact
C#CCN(C)Cc1ccccc1 [pargyline],effect on cell viability,[4],no effect on cell viability; also recorded: did not affect
